# Patent US20110250135A1, “Piperazine Derivatives for Binding and Imaging Amyloid Plaques and Their Use” (Bayer Schering Pharma Aktiengesellschaft, priority 2008, published 2011)
# Legend:
# [1] = Biodistribution: organ distribution of F-18 signal in mice; format: in vivo, male NMRI mice; details: for Organ distribution of F-18 signal, intestine: intestine (with content); for Organ distribution of F-18 signal, stomach: stomach (without content)
# Description: Biodistribution and excretion studies were performed in male NMRI mice (body weight app. 30g; 3 animals per time point). The animals were kept under normal laboratory conditions at a temperature of 22±2° C. and a dark/light rhythm of 12 hours. Food and water were provided ad libitium. During an acclimation period of at least 3 days before the beginning of the study animals were clinically examined to ascertain the absence of abnormal clinical signs. At 2, 5, 30, 60, 240 min post intravenous injection via the tail vein of ca. 150 kBq in 100 μl of the test compound, urine and feces were quantitatively collected. At the same time points, animals were sacrificed by decapitation and under isoflurane anaesthesia and the following organs and tissues were removed for the determination of radioactivity using a gamma-counter: spleen, liver, kidney, lung, femur, heart, brain, fat, thyroid, muscle, skin, blood, tail, stomach (without content), testicle, intestine (with content), pancreas, adrenals, and the remaining body. For analysis the decay corrected percentage of the injected dose per tissue weight (% ID/g±standard deviation) was calculated.
# Aβ plaques = target: T1, Aβ plaques (Homo sapiens, UniProt P05067); assay: Autoradiographical analysis of binding to cryosections from cortex of AD patients and controls; details: F-18 labeled compound; Alzheimer's disease patients (AD) vs controls without Aβ plaques
# T1 construct: controls without Aβ plaques; from tissue; host or cells: frontal lobe / cortex sections (frozen and paraffin) from AD patients, FTD patients and age-matched controls
# T1 sequence (P05067 672-713 limits assumed): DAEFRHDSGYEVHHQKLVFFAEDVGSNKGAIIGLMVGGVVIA
# From the text: Fresh frozen as well as paraffin embedded sections of the frontal lobe from Alzheimer's dementia patients, frontotemporal dementia patients and age matched controls were used for the study. Frozen sections, sliced at 18 μm thickness on a cryostate (Leica, Germany) and paraffin sections, sliced on a sliding microtom (Leica) at a thickness of 6 μm, were mounted onto glass slides (Superfrost Plus, Fa.Menzel, Braunschweig Germany). Frozen sections were allowed to adhere to the slides for several nights at −20° C. The paraffin sections were deparaffinized using routine histological methods. For binding studies sections were incubated with the F-18 labeled test compound at 10 Bq/μl diluted in 25 mM Hepes buffer, pH 7.4, 0.1% (BSA) (200-300 μl/slide) for 1.5 hour at room temperature in a humidified chamber. For blocking experiments a 1000-fold access of the unlabeled test substance was added to the incubation mixture. After hybridization, sections were washed four times with Hepes buffer, 0.1% BSA (or alternatively two times with 40% ethanol) and finally dipped two times into dest. water for 10 sec. The air-dried sections were exposed to imaging plates and signals were detected by a phosphoimager device (Fuji BAS5000).
structure (smiles),measurement,setting,value
"O=C(NCC(=O)N1CCN(c2ccc(OCc3ccccc3)cc2)CC1)c1ccc([18F])nc1 [Example 10e, N-{2-[4-(4-Benzyloxy-phenyl)-piperazin-1-yl]-2-oxoethyl}-6-[F-18]-fluoro-nicotinamide]","Organ distribution of F-18 signal, adrenals",[1]; 2 min post i.v. injection,7.86 % ID/g
same,"Organ distribution of F-18 signal, adrenals",[1]; 5 min post i.v. injection,6.20 % ID/g
same,"Organ distribution of F-18 signal, adrenals",[1]; 30 min post i.v. injection,2.36 % ID/g
same,"Organ distribution of F-18 signal, adrenals",[1]; 60 min post i.v. injection,0.67 % ID/g
same,"Organ distribution of F-18 signal, adrenals",[1]; 240 min post i.v. injection,0.43 % ID/g
same,"Organ distribution of F-18 signal, blood",[1]; 2 min post i.v. injection,2.01 % ID/g
same,"Organ distribution of F-18 signal, blood",[1]; 5 min post i.v. injection,1.98 % ID/g
same,"Organ distribution of F-18 signal, blood",[1]; 30 min post i.v. injection,1.38 % ID/g
same,"Organ distribution of F-18 signal, blood",[1]; 60 min post i.v. injection,0.55 % ID/g
same,"Organ distribution of F-18 signal, blood",[1]; 240 min post i.v. injection,0.09 % ID/g
same,"Organ distribution of F-18 signal, brain",[1]; 2 min post i.v. injection,4.99 % ID/g
same,"Organ distribution of F-18 signal, brain",[1]; 5 min post i.v. injection,4.33 % ID/g
same,"Organ distribution of F-18 signal, brain",[1]; 30 min post i.v. injection,1.44 % ID/g
same,"Organ distribution of F-18 signal, brain",[1]; 60 min post i.v. injection,0.44 % ID/g
same,"Organ distribution of F-18 signal, brain",[1]; 240 min post i.v. injection,0.04 % ID/g
same,"Organ distribution of F-18 signal, fat",[1]; 2 min post i.v. injection,1.79 % ID/g
same,"Organ distribution of F-18 signal, fat",[1]; 5 min post i.v. injection,2.66 % ID/g
same,"Organ distribution of F-18 signal, fat",[1]; 30 min post i.v. injection,1.95 % ID/g
same,"Organ distribution of F-18 signal, fat",[1]; 60 min post i.v. injection,0.67 % ID/g
same,"Organ distribution of F-18 signal, fat",[1]; 240 min post i.v. injection,0.15 % ID/g
same,"Organ distribution of F-18 signal, femur",[1]; 2 min post i.v. injection,1.44 % ID/g
same,"Organ distribution of F-18 signal, femur",[1]; 5 min post i.v. injection,1.53 % ID/g
same,"Organ distribution of F-18 signal, femur",[1]; 30 min post i.v. injection,1.15 % ID/g
same,"Organ distribution of F-18 signal, femur",[1]; 60 min post i.v. injection,1.43 % ID/g
same,"Organ distribution of F-18 signal, femur",[1]; 240 min post i.v. injection,1.75 % ID/g
same,"Organ distribution of F-18 signal, heart",[1]; 2 min post i.v. injection,5.18 % ID/g
same,"Organ distribution of F-18 signal, heart",[1]; 5 min post i.v. injection,4.49 % ID/g
same,"Organ distribution of F-18 signal, heart",[1]; 30 min post i.v. injection,1.85 % ID/g
same,"Organ distribution of F-18 signal, heart",[1]; 60 min post i.v. injection,0.69 % ID/g
same,"Organ distribution of F-18 signal, heart",[1]; 240 min post i.v. injection,0.11 % ID/g
same,"Organ distribution of F-18 signal, intestine",[1]; 2 min post i.v. injection,2.13 % ID/g
same,"Organ distribution of F-18 signal, intestine",[1]; 5 min post i.v. injection,2.40 % ID/g
same,"Organ distribution of F-18 signal, intestine",[1]; 30 min post i.v. injection,8.20 % ID/g
same,"Organ distribution of F-18 signal, intestine",[1]; 60 min post i.v. injection,10.63 % ID/g
same,"Organ distribution of F-18 signal, intestine",[1]; 240 min post i.v. injection,6.90 % ID/g
same,"Organ distribution of F-18 signal, kidney",[1]; 2 min post i.v. injection,8.58 % ID/g
same,"Organ distribution of F-18 signal, kidney",[1]; 5 min post i.v. injection,7.92 % ID/g
same,"Organ distribution of F-18 signal, kidney",[1]; 30 min post i.v. injection,6.29 % ID/g
same,"Organ distribution of F-18 signal, kidney",[1]; 60 min post i.v. injection,2.61 % ID/g
same,"Organ distribution of F-18 signal, kidney",[1]; 240 min post i.v. injection,0.50 % ID/g
same,"Organ distribution of F-18 signal, liver",[1]; 2 min post i.v. injection,7.44 % ID/g
same,"Organ distribution of F-18 signal, liver",[1]; 5 min post i.v. injection,12.02 % ID/g
same,"Organ distribution of F-18 signal, liver",[1]; 30 min post i.v. injection,9.60 % ID/g
same,"Organ distribution of F-18 signal, liver",[1]; 60 min post i.v. injection,5.27 % ID/g
same,"Organ distribution of F-18 signal, liver",[1]; 240 min post i.v. injection,2.29 % ID/g
same,"Organ distribution of F-18 signal, lung",[1]; 2 min post i.v. injection,4.31 % ID/g
same,"Organ distribution of F-18 signal, lung",[1]; 5 min post i.v. injection,3.86 % ID/g
same,"Organ distribution of F-18 signal, lung",[1]; 30 min post i.v. injection,1.93 % ID/g
same,"Organ distribution of F-18 signal, lung",[1]; 60 min post i.v. injection,0.89 % ID/g
same,"Organ distribution of F-18 signal, lung",[1]; 240 min post i.v. injection,0.10 % ID/g
same,"Organ distribution of F-18 signal, muscle",[1]; 2 min post i.v. injection,2.40 % ID/g
same,"Organ distribution of F-18 signal, muscle",[1]; 5 min post i.v. injection,2.07 % ID/g
same,"Organ distribution of F-18 signal, muscle",[1]; 30 min post i.v. injection,1.16 % ID/g
same,"Organ distribution of F-18 signal, muscle",[1]; 60 min post i.v. injection,0.34 % ID/g
same,"Organ distribution of F-18 signal, muscle",[1]; 240 min post i.v. injection,0.06 % ID/g
same,"Organ distribution of F-18 signal, pancreas",[1]; 2 min post i.v. injection,4.59 % ID/g
same,"Organ distribution of F-18 signal, pancreas",[1]; 5 min post i.v. injection,4.54 % ID/g
same,"Organ distribution of F-18 signal, pancreas",[1]; 30 min post i.v. injection,2.27 % ID/g
same,"Organ distribution of F-18 signal, pancreas",[1]; 60 min post i.v. injection,0.92 % ID/g
same,"Organ distribution of F-18 signal, pancreas",[1]; 240 min post i.v. injection,1.07 % ID/g
same,"Organ distribution of F-18 signal, skin",[1]; 2 min post i.v. injection,1.37 % ID/g
same,"Organ distribution of F-18 signal, skin",[1]; 5 min post i.v. injection,1.76 % ID/g
same,"Organ distribution of F-18 signal, skin",[1]; 30 min post i.v. injection,1.39 % ID/g
same,"Organ distribution of F-18 signal, skin",[1]; 60 min post i.v. injection,0.51 % ID/g
same,"Organ distribution of F-18 signal, skin",[1]; 240 min post i.v. injection,0.08 % ID/g
same,"Organ distribution of F-18 signal, spleen",[1]; 2 min post i.v. injection,1.96 % ID/g
same,"Organ distribution of F-18 signal, spleen",[1]; 5 min post i.v. injection,1.99 % ID/g
same,"Organ distribution of F-18 signal, spleen",[1]; 30 min post i.v. injection,1.08 % ID/g
same,"Organ distribution of F-18 signal, spleen",[1]; 60 min post i.v. injection,0.35 % ID/g
same,"Organ distribution of F-18 signal, spleen",[1]; 240 min post i.v. injection,0.06 % ID/g
same,"Organ distribution of F-18 signal, stomach",[1]; 2 min post i.v. injection,3.69 % ID/g
same,"Organ distribution of F-18 signal, stomach",[1]; 5 min post i.v. injection,2.84 % ID/g
same,"Organ distribution of F-18 signal, stomach",[1]; 30 min post i.v. injection,2.40 % ID/g
same,"Organ distribution of F-18 signal, stomach",[1]; 60 min post i.v. injection,1.09 % ID/g
same,"Organ distribution of F-18 signal, stomach",[1]; 240 min post i.v. injection,0.50 % ID/g
same,"Organ distribution of F-18 signal, tail",[1]; 2 min post i.v. injection,8.65 % ID/g
same,"Organ distribution of F-18 signal, tail",[1]; 5 min post i.v. injection,6.65 % ID/g
same,"Organ distribution of F-18 signal, tail",[1]; 30 min post i.v. injection,1.86 % ID/g
same,"Organ distribution of F-18 signal, tail",[1]; 60 min post i.v. injection,1.00 % ID/g
same,"Organ distribution of F-18 signal, tail",[1]; 240 min post i.v. injection,0.69 % ID/g
same,"Organ distribution of F-18 signal, testicle",[1]; 2 min post i.v. injection,1.53 % ID/g
same,"Organ distribution of F-18 signal, testicle",[1]; 5 min post i.v. injection,1.81 % ID/g
same,"Organ distribution of F-18 signal, testicle",[1]; 30 min post i.v. injection,1.28 % ID/g
same,"Organ distribution of F-18 signal, testicle",[1]; 60 min post i.v. injection,0.52 % ID/g
same,"Organ distribution of F-18 signal, testicle",[1]; 240 min post i.v. injection,0.06 % ID/g
same,"Organ distribution of F-18 signal, thyroid",[1]; 2 min post i.v. injection,2.51 % ID/g
same,"Organ distribution of F-18 signal, thyroid",[1]; 5 min post i.v. injection,2.62 % ID/g
same,"Organ distribution of F-18 signal, thyroid",[1]; 30 min post i.v. injection,1.26 % ID/g
same,"Organ distribution of F-18 signal, thyroid",[1]; 60 min post i.v. injection,0.56 % ID/g
same,"Organ distribution of F-18 signal, thyroid",[1]; 240 min post i.v. injection,0.35 % ID/g
same,autoradiographical analysis of binding to cryosections from cortex,Aβ plaques,Specific binding in plaque-rich regions of AD samples
